Test system: subjects with primary autonomic failures (MSA, PD, or PAF) and symptomatic nOH
Test: Phase 3 22-week randomized withdrawal study in symptomatic nOH (Example 7)
Type: in vivo, human
Parameters: OHSA composite score, LS Mean / OHSA composite score, Mean / OHSA composite score, Median / OHSA composite score, LS Mean Difference / OHDAS item 1 (standing for a short time) score, Mean / OHDAS item 1 (standing for a short time) score, Median / OHDAS item 1 (standing for a short time) score, LS Mean / OHDAS item 1 (standing for a short time) score, LS Mean Difference: scale not given here
Settings: for OHSA composite score, Mean / OHSA composite score, Median / OHSA composite score, LS Mean Difference / OHSA composite score, LS Mean: change at week 22, end of 6-week double-blind period; for OHDAS item 1 (standing for a short time) score, LS Mean / OHDAS item 1 (standing for a short time) score, Mean / OHDAS item 1 (standing for a short time) score, Median / OHDAS item 1 (standing for a short time) score, LS Mean Difference: week 22, end of 6-week double-blind period
Procedure: The study consisted of a 16-week open-label (OL) treatment period with ampreloxetine followed by a 6-week double-blind randomized withdrawal period where subjects were administered either ampreloxetine or placebo.
Eligible subjects were either (i) completers of the study of Example 6 (“Completers Group”), or (ii) symptomatic nOH subjects meeting all applicable study inclusion criteria and none of the applicable exclusion criteria (“De Novo Group”).
A 4-week screening period applied to the De Novo Group only and the Screening visit was conducted in clinic for all De Novo Group subjects.
A total of 203 subjects entered this study (170 subjects from Example 6 (85 from the ampreloxetine group and 85 from the placebo group) and 33 de novo subjects). During the OL period, 55 subjects discontinued treatment. At 16 weeks, 64 subjects were randomized to the ampreloxetine group (6 subjects discontinued the study) and 64 subjects were randomized to the placebo group (3 subjects discontinued the study). A total of 119 subjects completed the study. Of the 128 subjects entering the randomized period, 40 subjects had MSA (31%); 68 subjects had PD (53%); and 20 subjects had PAF (16%) (in each category, the subjects were split equally between ampreloxetine and placebo).
Beginning on Day 2, subjects received a single dose of 10 mg ampreloxetine once daily (QD) and continued thereafter for the 16-week duration of the OL treatment period. Following this 16-week OL treatment period, subjects were randomized to either continue on the active treatment or placebo (“PBO”) for a period of 6 weeks.
Subjects enrolled into the OL period of the study had visits scheduled for Day 15, Day 29, and every 4 weeks thereafter for assessments as outlined in the Schedule of Study Procedures. […] Those subjects not meeting this continuation criterion were discontinued and underwent an end of study visit. The end of study visit was completed within 2 weeks from the date of the last dose.
Following the completion of a total of 16 weeks OL treatment with ampreloxetine (V6), subjects were assessed for randomization in a 1:1 manner. Eligible subjects received 6 weeks of double-blind treatment of ampreloxetine or PBO once daily. Only subjects with OHSA #1 score of ≤7 were eligible for randomization for the double-blind treatment period.
Exploratory assessments included: orthostatic standing test; NMSS; EQ-5D-5L; HADS; and BSFC-s. For subjects with PD, exploratory assessments included: Unified Parkinson's Disease Rating Scale (UPDRS); and Parkinson's Disease Questionaire-8 (PDQ-8). For subjects with MSA, exploratory assessments included: Unified Multiple System Atrophy Rating Scale (UMSARS); and Composite Autonomic Symptom Score-31 (COMPASS-31).
The secondary endpoints included: • (a) Change from baseline in OHSA #1 at Week 6 post randomization (V9, D155); • (b) Change from baseline in OHSA composite score at Week 6 post randomization (V9, D155); • (c) Change from baseline in OHDAS composite score at Week 6 post randomization (V9, D155); • (d) Change from baseline in PGI-S at Week 6 post randomization (V9, D155); • (e) Change from baseline in percentage of time spent in standing position as measured by a wearable device at Week 6 post randomization (V9, D155); and • (f) Change from baseline in average number of steps taken as measured by a wearable device at Week 6 post randomization (V9, D155).

[1] = MSA subjects, Pre treatment baseline OHSA1 <7
[2] = MSA subjects, Pre treatment baseline OHSA1 >2
[3] = MSA subjects, Pre treatment baseline OHSA1 >=7
[4] = MSA subjects, Pre treatment baseline OHSA Composite <5.3
[5] = MSA subjects, Pre treatment baseline OHSA Composite >=5.3
[6] = MSA subjects, RW baseline OHSA1 <=2
[7] = MSA subjects, RW baseline OHSA Composite <2.5
[8] = MSA subjects, RW baseline OHSA Composite >=2.5
[9] = MSA subjects, UMSARS Part IV <4
[10] = MSA subjects, UMSARS Part IV <4, vs placebo
[11] = MSA subjects, UMSARS Part IV >=4
[12] = MSA subjects, UMSARS Part IV >=4, vs placebo
[13] = MSA subjects, nOH onset <1.6 years
[14] = MSA subjects, nOH onset <1.6 years, vs placebo
[15] = MSA subjects, nOH onset >=1.6 years
[16] = MSA subjects, nOH onset >=1.6 years, vs placebo
[17] = MSA subjects, end of 6-week double-blind randomized period, FIG. 3
[18] = MSA subjects, week 22, 10 mg, N 19

Compound: Fc1cc(F)c(OCc2ccccc2C2CCNCC2)c(F)c1 [Ampreloxetine, 4-[2-(2,4,6-trifluorophenoxymethyl)phenyl]piperidine]
- OHSA composite score, Mean [1]: −0.11
- OHSA composite score, Median [1]: −0.1
- OHSA composite score, LS Mean Difference (MSA subjects, Pre treatment baseline OHSA1 <7, vs placebo): −1.08
- OHSA composite score, LS Mean [2]: −0.77
- OHSA composite score, Mean [2]: −0.96
- OHSA composite score, Median [2]: −0.6
- OHSA composite score, LS Mean Difference (MSA subjects, Pre treatment baseline OHSA1 >2, vs placebo): −1.99
- OHSA composite score, LS Mean [3]: 0.41
- OHSA composite score, Mean [3]: 0.00
- OHSA composite score, Median [3]: 0.5
- OHSA composite score, LS Mean Difference (MSA subjects, Pre treatment baseline OHSA1 >=7, vs placebo): −1.31
- OHSA composite score, LS Mean [4]: −0.71
- OHSA composite score, Mean [4]: −0.56
- OHSA composite score, Median [4]: −0.05
- OHSA composite score, LS Mean Difference (MSA subjects, Pre treatment baseline OHSA Composite <5.3, vs placebo): −1.96
- OHSA composite score, LS Mean [5]: 0.76
- OHSA composite score, Mean [5]: 0.46
- OHSA composite score, Median [5]: 0.3
- OHSA composite score, LS Mean Difference (MSA subjects, Pre treatment baseline OHSA Composite >=5.3, vs placebo): −0.97
- OHSA composite score, LS Mean [6]: 0.74
- OHSA composite score, Mean [6]: 0.86
- OHSA composite score, Median [6]: 0.25
- OHSA composite score, LS Mean Difference (MSA subjects, RW baseline OHSA1 <=2, vs placebo): −0.91
- OHSA composite score, LS Mean [7]: 0.95
- OHSA composite score, Mean [7]: 0.98
- OHSA composite score, Median [7]: 0.4
- OHSA composite score, LS Mean Difference (MSA subjects, RW baseline OHSA Composite <2.5, vs placebo): −0.90
- OHSA composite score, LS Mean [8]: −0.92
- OHSA composite score, Mean [8]: −0.90
- OHSA composite score, Median [8]: −0.5
- OHSA composite score, LS Mean Difference (MSA subjects, RW baseline OHSA Composite >=2.5, vs placebo): −1.96
- OHSA composite score, LS Mean [9]: 0.01
- OHSA composite score, Mean [9]: −0.04
- OHSA composite score, Median [9]: 0.25
- OHSA composite score, LS Mean Difference [10]: −1.70
- OHDAS item 1 (standing for a short time) score, LS Mean [9]: −0.3
- OHDAS item 1 (standing for a short time) score, Mean [9]: −0.3
- OHDAS item 1 (standing for a short time) score, Median [9]: 0.0
- OHDAS item 1 (standing for a short time) score, LS Mean Difference [10]: −2.8
- OHSA composite score, LS Mean [11]: −0.17
- OHSA composite score, Mean [11]: −0.15
- OHSA composite score, Median [11]: −0.15
- OHSA composite score, LS Mean Difference [12]: −1.44
- OHDAS item 1 (standing for a short time) score, LS Mean [11]: 0.5
- OHDAS item 1 (standing for a short time) score, Mean [11]: 1.0
- OHDAS item 1 (standing for a short time) score, Median [11]: 1.0
- OHDAS item 1 (standing for a short time) score, LS Mean Difference [12]: 1.9
- OHSA composite score, LS Mean [13]: 0.48
- OHSA composite score, Mean [13]: 0.43
- OHSA composite score, Median [13]: 0.50
- OHSA composite score, LS Mean Difference [14]: −1.33
- OHDAS item 1 (standing for a short time) score, LS Mean [13]: −0.3
- OHDAS item 1 (standing for a short time) score, Mean [13]: −0.3
- OHDAS item 1 (standing for a short time) score, Median [13]: 0.0
- OHDAS item 1 (standing for a short time) score, LS Mean Difference [14]: −2.4
- OHSA composite score, LS Mean [15]: −0.45
- OHSA composite score, Mean [15]: −0.41
- OHSA composite score, Median [15]: −0.20
- OHSA composite score, LS Mean Difference [16]: −1.56
- OHDAS item 1 (standing for a short time) score, LS Mean [15]: −0.3
- OHDAS item 1 (standing for a short time) score, Mean [15]: −0.1
- OHDAS item 1 (standing for a short time) score, Median [15]: 0.0
- OHDAS item 1 (standing for a short time) score, LS Mean Difference [16]: −0.8
- OHDAS composite score, change (MSA subjects, 6-week double-blind randomized period, placebo +0.97, p=0.196): +0.16
- Systolic blood pressure upon standing for 3 minutes, mean change (MSA subjects, 6-week double-blind randomized period, placebo −12.4): +6.1 mmHg
- Quality of life, EQ-5D-5L visual analog scale (MSA subjects, FIG. 4, vs placebo): quality of life declines less or improves
- OHDAS walking long time [17]: favor placebo
- OHSA and OHDAS composite scores and individual subscores [17]: all favor ampreloxetine
- OHSA item 1 score, change (MSA subjects, end of 6-week double-blind randomized withdrawal period, placebo +1.8, p=0.0861): +0.3
- Anxiety Total Score, Change from Baseline, LS Mean Difference (SE) (MSA subjects, week 22, 10 mg vs placebo, P-value 0.0343): −1.26 (0.573)
- Anxiety Total Score, Change from Baseline, LS Mean (SE) [18]: −1.05 (0.405)
- Anxiety Total Score, Change from Baseline, Mean (SD) [18]: −1.05 (1.900)
- Anxiety Total Score, Change from Baseline, Median [18]: −1.00
- OHQ composite scores for subgroups (subgroups of MSA subjects, week 22, FIG. 6): all favored ampreloxetine

Source: patent US20230372318A1, “METHODS FOR TREATING A SUBJECT HAVING MULTIPLE SYSTEM ATROPHY” (Theravance Biopharma R&D IP, LLC, priority 2022, published 2023)
